The target of the assay is T1, GST-hCAR-LBD (Homo sapiens, UniProt Q14994).
T1 construct: purchased Life Technologies (Carlsbad, Calif.) or Invitrogen (Carlsbad, Calif.)
T1 sequence (Q14994 109-352 limits assumed): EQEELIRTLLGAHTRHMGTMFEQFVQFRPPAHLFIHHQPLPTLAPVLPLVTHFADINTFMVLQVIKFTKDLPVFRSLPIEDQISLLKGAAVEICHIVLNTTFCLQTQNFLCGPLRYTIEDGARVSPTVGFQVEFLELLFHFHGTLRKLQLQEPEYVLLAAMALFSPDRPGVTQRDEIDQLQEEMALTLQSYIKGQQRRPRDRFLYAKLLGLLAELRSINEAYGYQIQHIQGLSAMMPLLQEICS
The assay can be described thus: CoAct binding inverse agonist assay (LanthaScreen TR-FRET, fluorescent PGC-1α coactivator recruitment/repression). It counts as biochemical. The settings on record: for inhibition at 70 µM: read-out: % Inhibition (70 μM); for fold increase of IC50 (decrease of activity) relative to lead chemical 1 (CINPA1) / fold increase of CAR inverse agonistic activity (potency) over lead chemical 1 (CINPA1): relative to chemical 1. As for the experimental part: The effect of putative CAR ligands on the recruitment or repression of PGC-1α binding to hCAR was evaluated by using a LanthaScreen TR-FRET assay according to the manufacturer's instructions. […] The final DMSO concentration was 0.7% in all assay wells. […] The % Inhibition values were then plotted for individual chemicals. When applicable, the graphic software GraphPad Prism 5.04 (GraphPad Software, La Jolla, Calif., USA) was used to fit the data into a one-site competitive-binding equation to derive IC50 values. […] The assay plates were then briefly spun down and incubated for 1 hour at room temperature (25° C.). […] The final DMSO concentration was 0.7% in all assay wells. […] The % Inhibition values were then plotted for individual chemicals. When applicable, the graphic software GraphPad Prism 5.04 (GraphPad Software, La Jolla, Calif., USA) was used to fit the data into a one-site competitive-binding equation to derive IC50 values.

Where [1] appears, read: 70 μM compound, 42 μM clotrimazole = 100%, DMSO = 0%.
Where [2] appears, read: read-out: IC50 (CAR inverse agonistic activity).

Each structure is given as a SMILES string. Values joined by “and” are separate entries in the source; they are usually repeats but may differ in a detail not shown here. Identical values can stand only once. Like-named read-outs stand apart in the source and are kept apart here.

Consider `O=C(Nc1ccc2c(c1)N(C(=O)c1cccs1)c1ccccc1CC2)OC1CCCCC1` [Compound 68], for which, under “Table 4, read-out: IC50”, the IC50 – broadly, the concentration needed to halve the response being measured – came out at 19 nM.
With `CCOC(=O)Nc1ccc2c(c1)N(C(=O)CN(C(C)C)C(C)C)c1ccccc1CC2` [Compound 12, ethyl (5-(diisopropylglycyl)-10,11-dihydro-5H-dibenzo[b,f]azepin-3-yl)carbamate], the “fold increase of IC50 (decrease of activity) relative to lead chemical 1 (CINPA1)” value is reported as “more than 4 fold”. Besides, the inhibition (in general, the drop in the measured response relative to a control, in per cent) at 70 µM under setting [1] was 110%. The IC50 (Table 4, read-out: IC50) was determined as 3050 nM.
Regarding `CCN(CC)CC(=O)N1c2ccccc2CCc2ccc(NC(=O)C(C)(C)C)cc21` [Compound 4, N-(5-(diethylglycyl)-10,11-dihydro-5H-dibenzo[b,f]azepin-3-yl)pivalamide], the inhibition at 70 µM under setting [1] is 113%. Also, the IC50 under setting [2] was 1030 nM.
In the case of `O=C(Nc1ccc2c(c1)N(C(=O)COC1CCCC1)c1ccccc1CC2)OC1CCCCC1` [Compound 51], the IC50 (Table 4, read-out: IC50) stood at 65 nM.
On to `CC(C)OC(=O)Nc1ccc2c(c1)N(C(=O)Cn1cccc1)c1ccccc1CC2` [Compound 26, isopropyl (5-(2-(1H-pyrrol-1-yl)acetyl)-10,11-dihydro-5H-dibenzo[b,f]azepin-3-yl)carbamate], for which the “fold increase of CAR inverse agonistic activity (potency) over lead chemical 1 (CINPA1)” value (“fold increase … over lead chemical 1 (CINPA1)” below) worked out at 32.8 fold. Further, under setting [2], the IC50 is 21 nM and 22 nM.
Turning to `O=C(Nc1ccc2c(c1)N(C(=O)Cc1cccs1)c1ccccc1CC2)OC1CCCCC1` [Compound 66], where the note is “Table 4, read-out: IC50”, the IC50 is 26 nM.
`CCOC(=O)Nc1ccc2c(c1)N(C(=O)CN1CCOCC1)c1ccccc1CC2` [compound 80]: the “fold increase … over lead chemical 1 (CINPA1)” value is “about 3 fold”. The IC50 under setting [2] was 240 nM and 235 nM.
With `CCOC(=O)Nc1ccc2c(c1)N(C(=O)CCN1CCCC1)c1ccccc1CC2` [Compound 23], the inhibition at 70 µM was determined as 118%. Besides, the IC50 under setting [2] was found to be 3180 nM.
Take `CCCN(CCC)CC(=O)N1c2ccccc2CCc2ccc(NC(=O)OCC)cc21` [Compound 11, ethyl (5-(dipropylglycyl)-10,11-dihydro-5H-dibenzo[b,f]azepin-3-yl)carbamate]: the “fold increase … over lead chemical 1 (CINPA1)” value came out at 3 fold. In addition, the inhibition at 70 µM under setting [1] was 113%. Besides, the IC50 under setting [2] turned out to be 210 nM.
Consider `Clc1ccccc1C(c1ccccc1)(c1ccccc1)n1ccnc1` [Clotrimazole, reference compound], for which the inhibition at 42 µM (42 μM clotrimazole, positive control) was 100%.
On to `O=C(Nc1ccc2c(c1)N(C(=O)n1cccc1)c1ccccc1CC2)OC1CCCCC1` [Compound 58], for which the IC50 (Table 4, read-out: IC50) amounted to 14 nM.
In the case of `O=C(Nc1ccc2c(c1)N(C(=O)Cn1cccc1)c1ccccc1CC2)N1CCCCC1` [Compound 47], the IC50 (Table 4, read-out: IC50) was 99 nM.
On to `CCOC(=O)Nc1ccc2c(c1)N(C(=O)CNC(C)(C)CC)c1ccccc1CC2` [Compound 21, ethyl (5-(tert-pentylglycyl)-10,11-dihydro-5H-dibenzo[b,f]azepin-3-yl)carbamate], for which the “fold increase of IC50 (decrease of activity) relative to lead chemical 1 (CINPA1)” value was 3 fold. Further, the inhibition at 70 µM under setting [1] worked out at 116%. For the same molecule, under setting [2], the IC50 came to 2060 nM.
Turning to `CCOC(=O)Nc1ccc2c(c1)N(C(=O)CN(CC)CC)c1ccccc1CC2` [1 (CINPA1)], the IC50 (Table 6, CINPA1 and commercially available analogs, read-out: IC50) turned out to be 690 nM.
As for `CCOC(=O)Nc1ccc2c(c1)N(C(=O)CN1CCCC1)c1ccccc1CC2` [Compound 13, ethyl (5-(2-(pyrrolidin-1-yl)acetyl)-10,11-dihydro-5H-dibenzo[b,f]azepin-3-yl)carbamate], the “fold increase of IC50 (decrease of activity) relative to lead chemical 1 (CINPA1)” value is reported as “more than 2 fold”. The inhibition at 70 µM under setting [1] is 115%. For the setting “Table 4, read-out: IC50”, the IC50 is 1580 nM. The IC50 (quoted in SAR text in nM, read-out: IC50 (CAR inverse agonistic activity)) worked out at 1580 nM. In addition, the IC50 under setting [2] was 1580 nM.
Consider `CCOC(=O)Nc1ccc2c(c1)N(C(=O)CCN1CCOCC1)c1ccccc1CC2` [compound 85], for which the half-maximal inhibitory concentration (IC50) under setting [2] turned out to be 320 nM.
`O=C(Nc1ccc2c(c1)N(C(=O)Cc1ccco1)c1ccccc1CC2)OC1CCCCC1` [Compound 67]: the IC50 (Table 4, read-out: IC50) came out at 31 nM.

(Values after US9908890B2, “Selective inhibitors of constitutive androstane receptor” (ST. JUDE CHILDREN'S RESEARCH HOSPITAL, priority 2014, dated 2018).)
